Among the data in BindingDB's records for doi:10.1074/jbc.M113.474114 (Glaxosmithkline, 2013) are IC50 values, retold here.

The target in this test is T1, Tyrosine-protein kinase ITK/TSK [357-620,Y512E] (Human, UniProt Q08881, Y512E).
T1 construct: 357-620
Description: LanthaScreen Kinase Binding Assay. From the text:
This assay is based on the binding and displacement of Alexa-fluor 647-labeled ATP-competitive kinase inhibitor tracer 236. Binding of the tracer is detected using a europium-labeled anti-tag antibody that binds to the purified recombinant tagged Itk protein. Binding of the tracer 236 is reversible and rapid, and simultaneous binding of the tracer and antibody results in fluorescence resonance energy transfer (FRET). Displacement of the tracer upon inhibitor binding results in a decrease of FRET. The assay can be read continuously, enabling rates of binding (and displacement) to be monitored.

The structures appear in SMILES notation. pIC50: −log10 of the molar value.

T1 sequence (Q08881 357-620 Y512E): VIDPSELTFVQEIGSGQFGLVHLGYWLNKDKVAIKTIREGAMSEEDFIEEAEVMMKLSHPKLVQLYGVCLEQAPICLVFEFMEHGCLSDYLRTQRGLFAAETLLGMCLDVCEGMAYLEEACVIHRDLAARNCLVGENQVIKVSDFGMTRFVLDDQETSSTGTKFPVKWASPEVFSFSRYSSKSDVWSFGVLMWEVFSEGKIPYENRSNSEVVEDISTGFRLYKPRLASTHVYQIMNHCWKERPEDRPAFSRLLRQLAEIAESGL

Take `C=CC(=O)N1CC[C@H](Nc2cc(CN[C@@H](C)C(C)(C)C)cc(Nc3nc4cccnc4s3)n2)C1`: the pIC50 (commonly the IC50 on a negative log10 scale, so that one unit is a factor of ten) is 8.30. `C=CC(=O)N[C@H]1CCCC[C@H]1Nc1nc(CN2CCOCC2)cc(Nc2nc3cccnc3s2)n1` (relative stereo) [N-(cis-2-{[4-(4-Morpholinylmethyl)-6-([1,3]thiazolo[5,4-b]pyridin-2-ylamino)-2-pyrimidinyl]amino}cyclohexyl)-2-propenamide (4)] had a pIC50 of 6.49. Turning to `C=CC(=O)N[C@H]1CCC[C@@H](Nc2nc(CN3CCOCC3)cc(Nc3nc4cccnc4s3)n2)C1` (relative stereo) [N-(cis-3-{[4-(4-Morpholinylmethyl)-6-([1,3]thiazolo[5,4-b]pyridin-2-ylamino)-2-pyrimidinyl]amino}cyclohexyl)-2-propenamide (6)], the pIC50 was 6.60. The pIC50 values of the last two compounds are within 0.2 log units of each other. For `C=CC(=O)N1CC[C@H](Nc2cc(CN[C@H](C)C(C)(C)C)cc(Nc3nc4cccnc4s3)n2)C1` [1-((S)-3-((4-((((R)-3,3-Dimethylbutan-2-yl)amino)methyl)-6-(thiazolo[5,4-b]pyridin-2-ylamino)pyridin-2-yl)amino)pyrrolidin-1-yl)prop-2-en-1-one (13)] the value was 8.10; for `C=CC(=O)N1CC[C@H](Nc2cc(CN(C)C)cc(Nc3nc4cccnc4s3)n2)C1` [(S)-1-(3-((4-((Dimethylamino)methyl)-6-(thiazolo[5,4-b]pyridin-2-ylamino)pyridin-2-yl)amino)pyrrolidin-1-yl)prop-2-en-1-one (11)], 7.49; for `C=CC(=O)N1CC[C@H](Nc2cc(CN3CCCCC3)cc(Nc3nc4cccnc4s3)n2)C1` [(S)-1-(3-((4-(Piperidin-1-ylmethyl)-6-(thiazolo[5,4-b]pyridin-2-ylamino)pyridin-2-yl)amino)pyrrolidin-1-yl)prop-2-en-1-one (10)], 8.20. Consider `O[C@H]1CC[C@H](Nc2nc(CN3CCOCC3)cc(Nc3nc4cccnc4s3)n2)CC1` [(trans)-4-((4-(Morpholinomethyl)-6-(thiazolo[5,4-b]pyridin-2-ylamino)pyrimidin-2-yl)amino)cyclohexanol (1)], for which the pIC50 is 7.00. Compared with the last compound, the pIC50 is 1.20 log units lower. For `C=CC(=O)N1CCC(Nc2nc(CN3CCOCC3)cc(Nc3nc4cccnc4s3)n2)CC1` [N2-(1-Acryloyl-4-piperidinyl)-6-(4-morpholinylmethyl)-N4-[1,3]thiazolo[5,4-b]pyridin-2-yl-2,4-pyrimidinediamine (3)] the value was 6.49; for `C=CC(=O)N1CC[C@@H](Nc2nc(CN3CCOCC3)cc(Nc3nc4cccnc4s3)n2)C1` [N2-[(3R)-1-Acryloyl-3-pyrrolidinyl]-6-(4-morpholinylmethyl)-N4-[1,3]thiazolo[5,4-b]pyridin-2-yl-2,4-pyrimidinediamine (14)], 4.70. With `C=CC(=O)N1CC[C@H](Nc2nc(CN3CCOCC3)cc(Nc3nc4cccnc4s3)n2)C1` [N2-[(3S)-1-Acryloyl-3-pyrrolidinyl]-6-(4-morpholinylmethyl)-N4-[1,3]thiazolo[5,4-b]pyridin-2-yl-2,4-pyrimidinediamine (7)], the pIC50 was 6.30. To `C=CC(=O)NCCNc1nc(CN2CCOCC2)cc(Nc2nc3cccnc3s2)n1` [N-(2-{[4-(4-Morpholinylmethyl)-6-([1,3]thiazolo[5,4-b]pyridin-2-ylamino)-2-pyrimidinyl]amino}ethyl)-2-propenamide (2)] belongs 5.89; to `C=CC(=O)N[C@H]1CC[C@H](Nc2nc(CN3CCOCC3)cc(Nc3nc4cccnc4s3)n2)CC1` [N-(trans-4-{[4-(4-Morpholinylmethyl)-6-([1,3]thiazolo[5,4-b]pyridin-2-ylamino)-2-pyrimidinyl]amino}cyclohexyl)-2-propenamide (5)], 5.70; to `C=CC(=O)N1CC[C@H](Nc2cc(CN3C[C@@H](C)O[C@@H](C)C3)cc(Nc3nc4cccnc4s3)n2)C1` [N-[(3S)-1-Acryloyl-3-pyrrolidinyl]-4-{[cis-2,6-dimethyl-4-morpholinyl]methyl}-N'-[1,3]thiazolo[5,4-b]pyridin-2-yl-2,6-pyridinediamine (9)], 8.30.

Consider `C/C=C/C(=O)N1CC[C@H](Nc2cc(CN3C[C@@H](C)O[C@@H](C)C3)cc(Nc3nc4cccnc4s3)n2)C1` [N-{(3S)-1-[(2E)-2-Butenoyl]-3-pyrrolidinyl}-4-{[cis-2,6-dimethyl-4-morpholinyl]methyl}-N'-[1,3]thiazolo[5,4-b]pyridin-2-yl-2,6-pyridinediamine (16)], for which the pIC50 is 7.40.
